# Assay results published in US20240391931A1 (Bristol-Myers Squibb Company, priority 2021, published 2024).
# Key:
# HER2 WT = biological target: T1, HER2 WT (Homo sapiens, UniProt P04626); assay: Enzymatic assay HER2 WT (method a); type: biochemical; details: [HER2 WT]=12.5 nM, [ATP]=25 μM, [Peptide 22]=1 μM
# T1 construct: purchased ProQinase, Freiburg, Germany ERBB2 0108-0000-1
# Summary of the method: (§1)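 Microfluidic mobility-shift kinase assay with Peptide 22 (1 μM) in HEPES pH 7.5, MnCl2, MgCl2, Tween 20, TCEP. HER2 WT 12.5 nM and HER2 YVMA 5 nM each used 25 μM ATP; EGFR WT 2 nM used 1 mM ATP. IC50 came from initial-velocity (0–3600 s) percent inhibition, fitted to a variable-slope model.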
# EGFR WT = biological target: T2, EGFR WT (Homo sapiens, UniProt P00533); assay: Enzymatic assay EGFR WT (method c); type: biochemical; details: [EGFR WT]=2 nM, [ATP]=1 mM, [Peptide 22]=1 μM
# T2 construct: purchased Thermo Fisher, Carlsbad, CA ERBB1 PR7295B
# T2 sequence (P00533 25-1210): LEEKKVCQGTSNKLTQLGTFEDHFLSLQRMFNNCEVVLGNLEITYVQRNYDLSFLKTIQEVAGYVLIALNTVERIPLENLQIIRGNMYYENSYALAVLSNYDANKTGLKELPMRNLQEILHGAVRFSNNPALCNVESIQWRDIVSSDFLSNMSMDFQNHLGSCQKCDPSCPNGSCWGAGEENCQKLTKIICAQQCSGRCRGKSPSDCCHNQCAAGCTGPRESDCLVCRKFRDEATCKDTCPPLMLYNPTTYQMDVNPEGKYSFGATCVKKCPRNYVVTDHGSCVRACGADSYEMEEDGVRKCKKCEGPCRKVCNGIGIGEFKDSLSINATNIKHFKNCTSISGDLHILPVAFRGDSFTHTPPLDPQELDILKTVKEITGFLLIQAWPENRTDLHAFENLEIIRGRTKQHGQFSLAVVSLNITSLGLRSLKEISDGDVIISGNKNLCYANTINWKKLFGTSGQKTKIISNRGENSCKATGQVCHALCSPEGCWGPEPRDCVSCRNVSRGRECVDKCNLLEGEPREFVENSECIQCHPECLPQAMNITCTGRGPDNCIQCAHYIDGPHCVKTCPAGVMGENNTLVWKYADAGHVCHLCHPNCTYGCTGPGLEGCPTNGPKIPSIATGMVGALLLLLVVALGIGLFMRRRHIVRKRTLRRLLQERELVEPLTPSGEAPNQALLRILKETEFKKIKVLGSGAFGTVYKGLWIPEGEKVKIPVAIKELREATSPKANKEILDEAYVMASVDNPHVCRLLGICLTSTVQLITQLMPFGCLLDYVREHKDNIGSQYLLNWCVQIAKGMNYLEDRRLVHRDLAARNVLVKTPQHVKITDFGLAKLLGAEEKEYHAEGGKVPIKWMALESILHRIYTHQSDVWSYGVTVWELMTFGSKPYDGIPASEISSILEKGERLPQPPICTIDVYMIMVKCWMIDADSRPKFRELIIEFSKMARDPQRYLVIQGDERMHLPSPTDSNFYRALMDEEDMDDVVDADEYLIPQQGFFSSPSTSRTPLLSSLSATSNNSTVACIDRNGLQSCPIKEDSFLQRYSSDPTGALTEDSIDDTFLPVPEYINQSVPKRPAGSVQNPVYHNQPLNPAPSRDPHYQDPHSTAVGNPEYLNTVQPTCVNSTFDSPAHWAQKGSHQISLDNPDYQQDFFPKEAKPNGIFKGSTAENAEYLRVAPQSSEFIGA
# Summary of the method: as §1
# EGFR = EGFR (Homo sapiens, UniProt P00533); assay: EGFR signaling (pEGFR Tyr1068/total EGFR MSD) in A431 cells; type: cell-based; design: endogenous in cells; host or cells: A431, N87; details: for EC50: A431 cells, read-out: A431 pEGFR EC50; for Selectivity A431 EC50/BT474 EC50: ratio A431 pEGFR EC50 to BT474 pHER2 EC50; for Selectivity A431 EC50/HEKYVMA EC50: ratio A431 pEGFR EC50 to HEK YVMA pHER2 EC50
# Sequence of EGFR (P00533 25-1210): as above
# Summary of the method: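 Serum-starved A431 cells were pretreated 1.5 h in 1% FBS with compound (0.005–10 μM, 0.1% DMSO), then stimulated with 100 ng/mL human EGF for 10 min. Lysate pEGFR Tyr1068 was measured by MSD and normalized to total EGFR as % DMSO control; EC50 from variable-slope sigmoidal fit.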
# T1 sequence (P04626 23-1255): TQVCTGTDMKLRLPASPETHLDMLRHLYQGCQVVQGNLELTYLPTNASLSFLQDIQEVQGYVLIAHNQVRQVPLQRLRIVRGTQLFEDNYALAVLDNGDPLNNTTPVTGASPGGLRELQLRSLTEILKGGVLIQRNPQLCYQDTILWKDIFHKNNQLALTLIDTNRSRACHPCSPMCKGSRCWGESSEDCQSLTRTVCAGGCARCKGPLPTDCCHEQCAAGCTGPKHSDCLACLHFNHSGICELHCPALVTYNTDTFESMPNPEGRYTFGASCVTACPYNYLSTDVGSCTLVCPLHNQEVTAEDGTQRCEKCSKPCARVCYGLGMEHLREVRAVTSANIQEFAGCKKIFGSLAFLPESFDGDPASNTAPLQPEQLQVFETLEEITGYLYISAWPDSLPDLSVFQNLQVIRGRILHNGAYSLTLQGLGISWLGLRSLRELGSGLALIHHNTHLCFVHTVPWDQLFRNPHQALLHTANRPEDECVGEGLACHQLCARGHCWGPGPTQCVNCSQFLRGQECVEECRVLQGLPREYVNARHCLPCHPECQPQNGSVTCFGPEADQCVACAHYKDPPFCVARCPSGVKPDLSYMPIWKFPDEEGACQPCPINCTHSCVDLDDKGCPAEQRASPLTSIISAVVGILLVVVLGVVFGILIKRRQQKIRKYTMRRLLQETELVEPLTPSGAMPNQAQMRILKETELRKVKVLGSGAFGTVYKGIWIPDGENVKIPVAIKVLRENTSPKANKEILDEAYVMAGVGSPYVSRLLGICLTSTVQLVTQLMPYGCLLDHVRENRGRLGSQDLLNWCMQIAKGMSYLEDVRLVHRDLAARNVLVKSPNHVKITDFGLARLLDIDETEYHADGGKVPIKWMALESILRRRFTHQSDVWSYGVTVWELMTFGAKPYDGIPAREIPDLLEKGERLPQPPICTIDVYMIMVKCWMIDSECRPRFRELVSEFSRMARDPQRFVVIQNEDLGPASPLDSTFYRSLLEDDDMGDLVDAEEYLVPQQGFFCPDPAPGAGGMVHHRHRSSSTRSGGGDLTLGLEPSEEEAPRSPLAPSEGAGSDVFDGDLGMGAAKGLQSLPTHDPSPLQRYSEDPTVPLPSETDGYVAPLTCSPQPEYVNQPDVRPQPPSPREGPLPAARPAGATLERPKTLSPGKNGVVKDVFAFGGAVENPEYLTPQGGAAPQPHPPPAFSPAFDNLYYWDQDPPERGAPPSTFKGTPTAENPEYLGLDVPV
SMILES,IC50 (HER2 WT),IC50 (EGFR WT),EC50 (EGFR),Selectivity A431 EC50/BT474 EC50 (EGFR),Selectivity A431 EC50/HEKYVMA EC50 (EGFR)
"Cc1ccc(Oc2ccc(Nc3ncnc4sc5c(c34)CN(C(=O)/C=C/CN(C)C)C5)cc2Cl)cn1 [Compound 129, (E)-1-(4-((3-Chloro-4-((6-methylpyridin-3-yl)oxy)phenyl)amino)-5H-pyrrolo[3′,4′:4,5]thieno[2,3-d]pyrimidin-6(7H)-yl)-4-(dimethylamino)but-2-en-1-one]",< 100 nM,> 10000 nM,100 to 1000 nM,B (B: ≥ 20 and < 100),B (B: ≥ 20 and < 100)
"Cc1cc(Nc2ncnc3sc4c(c23)CN(C(=O)/C=C/CN(C)C)C4)ccc1Oc1ccn2ncnc2c1 [Compound 130, (E)-1-(4-((4-([1,2,4]Triazolo[1,5-a]pyridin-7-yloxy)-3-methylphenyl)amino)-5H-pyrrolo[3′,4′:4,5]thieno[2,3-d]pyrimidin-6(7H)-yl)-4-(dimethylamino)but-2-en-1-one]",< 100 nM,> 10000 nM,1000 to 10000 nM,A (A: ≥100),A (A: ≥100)
CCN(CC)C/C=C/C(=O)N1CCc2c(sc3ncnc(Nc4ccc(Oc5ccc(C)nc5)c(C)c4)c23)C1 [Compound 131],< 100 nM,1000 to 10000 nM,< 100 nM,C (C: ≥ 10 and < 20),D (D: ≥ 5 and < 10)
Cc1ccc(Oc2ccc(Nc3ncnc4sc5c(c34)CCN(C(=O)/C=C/CN3CC[C@@H](CO)C3)C5)cc2C)cn1 [Compound 132],< 100 nM,1000 to 10000 nM,100 to 1000 nM,B (B: ≥ 20 and < 100),C (C: ≥ 10 and < 20)
Cc1ccc(Oc2ccc(Nc3ncnc4sc5c(c34)CCN(C(=O)/C=C/CN3CC[C@H](CO)C3)C5)cc2C)cn1 [Compound 133],< 100 nM,> 10000 nM,100 to 1000 nM,B (B: ≥ 20 and < 100),C (C: ≥ 10 and < 20)
Cc1ccc(Oc2ccc(Nc3ncnc4sc5c(c34)CCN(C(=O)/C=C/CN3CC(CO)(CO)C3)C5)cc2C)cn1 [Compound 134],< 100 nM,1000 to 10000 nM,1000 to 10000 nM,B (B: ≥ 20 and < 100),B (B: ≥ 20 and < 100)
Cc1ccc(Oc2ccc(Nc3ncnc4sc5c(c34)CCN(C(=O)/C=C/CN3CCC(CO)(CO)CC3)C5)cc2C)cn1 [Compound 135],< 100 nM,> 10000 nM,1000 to 10000 nM,B (B: ≥ 20 and < 100),D (D: ≥ 5 and < 10)
Cc1ccc(Oc2ccc(Nc3ncnc4sc5c(c34)CCN(C(=O)/C=C/CN3CCO[C@H](CO)C3)C5)cc2C)cn1 [Compound 136],< 100 nM,> 10000 nM,100 to 1000 nM,B (B: ≥ 20 and < 100),C (C: ≥ 10 and < 20)
CCN(CC)C/C=C/C(=O)N1CCc2c(sc3ncnc(Nc4ccc(Oc5ccc(OC)nc5)c(C)c4)c23)C1 [Compound 137],< 100 nM,> 10000 nM,100 to 1000 nM,D (D: ≥ 5 and < 10),D (D: ≥ 5 and < 10)
"Cc1cc(Nc2ncnc3sc4c(c23)CCN(C(=O)/C=C/CN(C)C)C4)ccc1Oc1ccn2ncnc2c1 [Compound 138, (E)-1-(4-((4-([1,2,4]triazolo[1,5-a]pyridin-7-yloxy)-3-methylphenyl)amino)-5,8-dihydropyrido[4′,3′:4,5]thieno[2,3-d]pyrimidin-7(6H)-yl)-4-(dimethylamino)but-2-en-1-one]",< 100 nM,> 10000 nM,100 to 1000 nM,B (B: ≥ 20 and < 100),A (A: ≥100)
C#CCOCCN(C)C/C=C/C(=O)N1CCc2c(sc3ncnc(Nc4ccc(Oc5ccc(C)nc5)c(C)c4)c23)C1 [Compound 139],< 100 nM,> 10000 nM,< 100 nM,B (B: ≥ 20 and < 100),B (B: ≥ 20 and < 100)
COc1ccc(Oc2ccc(Nc3ncnc4sc5c(c34)CCN(C(=O)/C=C/CN3CC[C@H](CO)C3)C5)cc2C)cn1 [Compound 140],< 100 nM,> 10000 nM,100 to 1000 nM,B (B: ≥ 20 and < 100),C (C: ≥ 10 and < 20)
"Cc1ccc(Oc2ccc(Nc3ncnc4sc5c(c34)C(C)N(C(=O)/C=C/CN(C)C)C5)cc2C)cn1 (stereo not shown) [Compound 141, (E)-4-(dimethylamino)-1-(5-methyl-4-((3-methyl-4-((6-methylpyridin-3-yl)oxy)phenyl)amino)-5,7-dihydro-6H-pyrrolo[3′,4′:4,5]thieno[2,3-d]pyrimidin-6-yl)but-2-en-1-one]",< 100 nM,> 10000 nM,100 to 1000 nM,B (B: ≥ 20 and < 100),B (B: ≥ 20 and < 100)
"C=CC(=O)N1Cc2sc3ncnc(Nc4ccc(Oc5ccc(C)nc5)c(C)c4)c3c2C(C)C1 (stereo not shown) [Compound 142, 1-(5-methyl-4-((3-methyl-4-((6-methylpyridin-3-yl)oxy)phenyl)amino)-5,6-dihydropyrido[4′,3′:4,5]thieno[2,3-d]pyrimidin-7(8H)-yl)prop-2-en-1-one]",< 100 nM,1000 to 10000 nM,100 to 1000 nM,B (B: ≥ 20 and < 100),B (B: ≥ 20 and < 100)
COc1ccc(Oc2ccc(Nc3ncnc4sc5c(c34)CCN(C(=O)/C=C/CN3CC[C@@H](CO)C3)C5)cc2C)cn1 [Compound 143],< 100 nM,1000 to 10000 nM,< 100 nM,C (C: ≥ 10 and < 20),E (E: >1 and < 5)
Cc1ccc(Oc2ccc(Nc3ncnc4sc5c(c34)CCN(C(=O)/C=C/CN3CCO[C@@H](CO)C3)C5)cc2C)cn1 [Compound 144],< 100 nM,> 10000 nM,100 to 1000 nM,B (B: ≥ 20 and < 100),D (D: ≥ 5 and < 10)
Cc1ccc(Oc2ccc(Nc3ncnc4sc5c(c34)CCN(C(=O)/C=C/CN3CCCC(F)(CO)C3)C5)cc2C)cn1 (stereo not shown) [Compound 150],< 100 nM,1000 to 10000 nM,100 to 1000 nM,B (B: ≥ 20 and < 100),E (E: >1 and < 5)
Cc1ccc(Oc2ccc(Nc3ncnc4sc5c(c34)CCN(C(=O)/C=C/CN3CC(F)(CO)C3)C5)cc2C)cn1 [Compound 151],< 100 nM,> 10000 nM,100 to 1000 nM,B (B: ≥ 20 and < 100),E (E: >1 and < 5)
"COc1ccc(Oc2ccc(Nc3ncnc4sc5c(c34)C(C)CN(C(=O)/C=C/CN(C)C)C5)cc2C)cn1 (stereo not shown) [Compound 152, (E)-4-(dimethylamino)-1-(4-((4-((6-methoxypyridin-3-yl)oxy)-3-methylphenyl)amino)-5-methyl-5,8-dihydropyrido[4′,3′:4,5]thieno[2,3-d]pyrimidin-7(6H)-yl)but-2-en-1-one]",< 100 nM,> 10000 nM,100 to 1000 nM,C (C: ≥ 10 and < 20),C (C: ≥ 10 and < 20)
"Cc1ccc(Oc2ccc(Nc3ncnc4sc5c(c34)CN(C(=O)/C=C/CN(C)C)C5C)cc2C)cn1 (stereo not shown) [Compound 153, (E)-4-(dimethylamino)-1-(7-methyl-4-((3-methyl-4-((6-methylpyridin-3-yl)oxy)phenyl)amino)-5,7-dihydro-6H-pyrrolo[3′,4′:4,5]thieno[2,3-d]pyrimidin-6-yl)but-2-en-1-one]",100 to 1000 nM,> 10000 nM,100 to 1000 nM,B (B: ≥ 20 and < 100),C (C: ≥ 10 and < 20)
Cc1ccc(Oc2ccc(Nc3ncnc4sc5c(c34)CCN(C(=O)/C=C/CN3CCC[C@@H](CO)C3)C5)cc2C)cn1 [Compound 154],< 100 nM,> 10000 nM,< 100 nM,C (C: ≥ 10 and < 20),E (E: >1 and < 5)
Cc1ccc(Oc2ccc(Nc3ncnc4sc5c(c34)CCN(C(=O)/C=C/CN3CCC[C@H](CO)C3)C5)cc2C)cn1 [Compound 155],< 100 nM,> 10000 nM,< 100 nM,B (B: ≥ 20 and < 100),E (E: >1 and < 5)
"Cc1cc(Nc2ncnc3sc4c(c23)CCN(C(=O)/C=C/CN(C)C)C4)ccc1Oc1ccc(N(C)C)nc1 [Compound 158, (E)-4-(dimethylamino)-1-(4-((4-((6-(dimethylamino)pyridin-3-yl)oxy)-3-methylphenyl)amino)-5,8-dihydropyrido[4′,3′:4,5]thieno[2,3-d]pyrimidin-7(6H)-yl)but-2-en-1-one]",< 100 nM,1000 to 10000 nM,100 to 1000 nM,B (B: ≥ 20 and < 100),B (B: ≥ 20 and < 100)
